Test results published in the NIST ThermoML archive (doi:10.1016/j.tca.2012.02.002).

Test: molar heat capacity at constant pressure
Conditions: 101.33 kPa, Crystal

O=P([O-])([O-])[O-].[Er+3] [erbium phosphate]
Conditions | molar heat capacity at constant pressure [J/K/mol]
48.02 K, Vacuum adiabatic calorimetry | 18.68
49.64 K, Vacuum adiabatic calorimetry | 19.56
50 K, Drop calorimetry | 19.7
51.27 K, Vacuum adiabatic calorimetry | 20.45
52.9 K, Vacuum adiabatic calorimetry | 21.35
54.54 K, Vacuum adiabatic calorimetry | 22.23
55 K, Drop calorimetry | 22.45
56.17 K, Vacuum adiabatic calorimetry | 23.13
57.81 K, Vacuum adiabatic calorimetry | 24.03
59.46 K, Vacuum adiabatic calorimetry | 24.96
60 K, Drop calorimetry | 25.28
61.11 K, Vacuum adiabatic calorimetry | 25.9
62.76 K, Vacuum adiabatic calorimetry | 26.86
64.41 K, Vacuum adiabatic calorimetry | 27.81
65 K, Drop calorimetry | 28.13
66.06 K, Vacuum adiabatic calorimetry | 28.75
67.72 K, Vacuum adiabatic calorimetry | 29.67
69.38 K, Vacuum adiabatic calorimetry | 30.58
70 K, Drop calorimetry | 30.96
71.24 K, Vacuum adiabatic calorimetry | 31.56
73.31 K, Vacuum adiabatic calorimetry | 32.73
75 K, Drop calorimetry | 33.73
75.38 K, Vacuum adiabatic calorimetry | 33.9
77.44 K, Vacuum adiabatic calorimetry | 35.09
78.64 K, Vacuum adiabatic calorimetry | 35.5
79.51 K, Vacuum adiabatic calorimetry | 36.27
80 K, Drop calorimetry | 36.43
81 K, Vacuum adiabatic calorimetry | 37.03
81.57 K, Vacuum adiabatic calorimetry | 37.33
83.05 K, Vacuum adiabatic calorimetry | 38
83.64 K, Vacuum adiabatic calorimetry | 38.24
85 K, Drop calorimetry | 39.03
85.11 K, Vacuum adiabatic calorimetry | 38.94
85.72 K, Vacuum adiabatic calorimetry | 39.22
87.17 K, Vacuum adiabatic calorimetry | 40.21
87.79 K, Vacuum adiabatic calorimetry | 40.58
89.22 K, Vacuum adiabatic calorimetry | 41.36
89.86 K, Vacuum adiabatic calorimetry | 41.58
90 K, Drop calorimetry | 41.53
91.28 K, Vacuum adiabatic calorimetry | 42.3
91.94 K, Vacuum adiabatic calorimetry | 42.51
93.33 K, Vacuum adiabatic calorimetry | 43.21
94.02 K, Vacuum adiabatic calorimetry | 43.42
95 K, Drop calorimetry | 43.93
95.39 K, Vacuum adiabatic calorimetry | 44.16
96.11 K, Vacuum adiabatic calorimetry | 44.4
97.45 K, Vacuum adiabatic calorimetry | 45.11
99.5 K, Vacuum adiabatic calorimetry | 46.06
100 K, Drop calorimetry | 46.24
102.17 K, Vacuum adiabatic calorimetry | 47.11
105.46 K, Vacuum adiabatic calorimetry | 48.46
108.74 K, Vacuum adiabatic calorimetry | 50.01
110 K, Drop calorimetry | 50.59
112.02 K, Vacuum adiabatic calorimetry | 51.4
115.31 K, Vacuum adiabatic calorimetry | 52.75
118.6 K, Vacuum adiabatic calorimetry | 54.1
120 K, Drop calorimetry | 54.66
121.89 K, Vacuum adiabatic calorimetry | 55.38
125.18 K, Vacuum adiabatic calorimetry | 56.65
128.48 K, Vacuum adiabatic calorimetry | 57.9
130 K, Drop calorimetry | 58.5
131.77 K, Vacuum adiabatic calorimetry | 59.15
135.06 K, Vacuum adiabatic calorimetry | 60.36
138.35 K, Vacuum adiabatic calorimetry | 61.56
140 K, Drop calorimetry | 62.15
141.64 K, Vacuum adiabatic calorimetry | 62.75
144.92 K, Vacuum adiabatic calorimetry | 63.93
148.21 K, Vacuum adiabatic calorimetry | 65.06
150 K, Drop calorimetry | 65.63
151.5 K, Vacuum adiabatic calorimetry | 66.19
154.79 K, Vacuum adiabatic calorimetry | 67.31
158.07 K, Vacuum adiabatic calorimetry | 68.34
160 K, Drop calorimetry | 68.95
161.36 K, Vacuum adiabatic calorimetry | 69.45
164.64 K, Vacuum adiabatic calorimetry | 70.45
167.92 K, Vacuum adiabatic calorimetry | 71.48
170 K, Drop calorimetry | 72.09
171.18 K, Vacuum adiabatic calorimetry | 72.5
174.46 K, Vacuum adiabatic calorimetry | 73.47
177.73 K, Vacuum adiabatic calorimetry | 74.42
180 K, Drop calorimetry | 75.06
181 K, Vacuum adiabatic calorimetry | 75.35
184.26 K, Vacuum adiabatic calorimetry | 76.23
187.53 K, Vacuum adiabatic calorimetry | 77.14
190 K, Drop calorimetry | 77.87
190.79 K, Vacuum adiabatic calorimetry | 77.99
194.05 K, Vacuum adiabatic calorimetry | 78.87
197.31 K, Vacuum adiabatic calorimetry | 79.82
200 K, Drop calorimetry | 80.51
200.56 K, Vacuum adiabatic calorimetry | 80.61
204.21 K, Vacuum adiabatic calorimetry | 81.51
208.26 K, Vacuum adiabatic calorimetry | 82.53
210 K, Drop calorimetry | 83.03
212.31 K, Vacuum adiabatic calorimetry | 83.53
216.35 K, Vacuum adiabatic calorimetry | 84.52
220 K, Drop calorimetry | 85.43
220.38 K, Vacuum adiabatic calorimetry | 85.53
228.3 K, Vacuum adiabatic calorimetry | 87.52
230 K, Drop calorimetry | 87.73
232.31 K, Vacuum adiabatic calorimetry | 88.39
236.31 K, Vacuum adiabatic calorimetry | 89.17
240 K, Drop calorimetry | 89.95
240.3 K, Vacuum adiabatic calorimetry | 90.08
244.27 K, Vacuum adiabatic calorimetry | 90.89
248.24 K, Vacuum adiabatic calorimetry | 91.71
250 K, Drop calorimetry | 92.08
252.19 K, Vacuum adiabatic calorimetry | 92.54
256.13 K, Vacuum adiabatic calorimetry | 93.34
260 K, Drop calorimetry | 94.13
260.05 K, Vacuum adiabatic calorimetry | 94.13
263.96 K, Vacuum adiabatic calorimetry | 94.97
267.82 K, Vacuum adiabatic calorimetry | 95.68
270 K, Drop calorimetry | 96.08
271.7 K, Vacuum adiabatic calorimetry | 96.34
275.56 K, Vacuum adiabatic calorimetry | 97.1
279.36 K, Vacuum adiabatic calorimetry | 97.78
280 K, Drop calorimetry | 97.93
283.13 K, Vacuum adiabatic calorimetry | 98.4
286.87 K, Vacuum adiabatic calorimetry | 99.05
290 K, Drop calorimetry | 99.69
290.33 K, Vacuum adiabatic calorimetry | 99.68
294.03 K, Vacuum adiabatic calorimetry | 100.3
297.69 K, Vacuum adiabatic calorimetry | 101
300 K, Drop calorimetry | 101.4
301.33 K, Vacuum adiabatic calorimetry | 101.7
305.3 K, Vacuum adiabatic calorimetry | 102.4
310 K, Drop calorimetry | 103
311.36 K, Vacuum adiabatic calorimetry | 103.5
318.34 K, Vacuum adiabatic calorimetry | 104.6
320 K, Drop calorimetry | 104.8
325.26 K, Vacuum adiabatic calorimetry | 105.6
330 K, Drop calorimetry | 106.5
332.11 K, Vacuum adiabatic calorimetry | 106.5
338.88 K, Vacuum adiabatic calorimetry | 107.5
340 K, Drop calorimetry | 108.2
345.58 K, Vacuum adiabatic calorimetry | 108.5
350 K, Drop calorimetry | 109.8
400 K, Drop calorimetry | 116.9
450 K, Drop calorimetry | 122.8
500 K, Drop calorimetry | 127.7
550 K, Drop calorimetry | 131.8
600 K, Drop calorimetry | 135.4
650 K, Drop calorimetry | 138.4
700 K, Drop calorimetry | 141
750 K, Drop calorimetry | 143.3
800 K, Drop calorimetry | 145.3
850 K, Drop calorimetry | 147.1
900 K, Drop calorimetry | 148.8
950 K, Drop calorimetry | 150.2
1000 K, Drop calorimetry | 151.6
1050 K, Drop calorimetry | 152.8
1100 K, Drop calorimetry | 154
1150 K, Drop calorimetry | 155.1
1200 K, Drop calorimetry | 156.1
1250 K, Drop calorimetry | 157.1
1300 K, Drop calorimetry | 158.1
1350 K, Drop calorimetry | 158.9
1400 K, Drop calorimetry | 159.8
1450 K, Drop calorimetry | 160.6
1500 K, Drop calorimetry | 161.4
1550 K, Drop calorimetry | 162.2
1600 K, Drop calorimetry | 162.9
